Like-named read-outs stand apart in the source and are kept apart here.
Tests used:
[1] = system: VZV (wild-type strains); experiment: Anti-VZV assay (wild-type strains): virus-induced cytopathicity in HEL cell cultures; assay type: cell-based, varicella-zoster virus; conditions: HEL cell cultures
[2] = system: HEL cells; conditions: read-out: CC50 (HEL); HEL cells; anti-VZV table
[3] = system: HEL cells; conditions: anti-VZV table
[4] = system: HIV-1 (IIIB); experiment: Inhibition of HIV-1 (IIIB)-induced cytopathicity (giant cell formation) in CEM cells; assay type: cell-based; conditions: read-out: EC50 HIV-1 (concentration required to inhibit HIV-induced giant cell formation by 50%); HIV-1, CEM cell cultures
Description: (§1) A variety of glycopeptide antibiotic derivatives of vancomycin, eremomycin and teicoplanin including their aglycon derivatives were evaluated for their inhibitory activity against HIV-1 (IIIB) and HIV-2(ROD) in CEM cell cultures.

[5] = system: HIV-2(ROD); experiment: Inhibition of HIV-2 (ROD)-induced cytopathicity (giant cell formation) in CEM cells; assay type: cell-based; conditions: read-out: EC50 HIV-2 (concentration required to inhibit HIV-induced giant cell formation by 50%); HIV-2, CEM cell cultures
Description: as §1

[6] = system: human lymphocyte CEM; experiment: Cytostatic activity assay, CEM cells; assay type: cell-based; conditions: read-out: IC50 CEM (compound concentration required to inhibit tumor cell proliferation by 50%)
[7] = VZV strain OKA, read-out: EC50 VZV (OKA)
[8] = VZV strain YS, read-out: EC50 VZV (YS)

| SMILES | EC50 [1, 7] [µM] | EC50 [1, 8] [µM] | CC50 [2] [µM] | MTC (HEL) [3] | EC50 [4] [µM] | EC50 [5] [µM] | IC50 [6] [µM] |
| --- | --- | --- | --- | --- | --- | --- | --- |
| CCCCCCCCCCNCc1c(O)cc2c(c1O)-c1cc(ccc1O)C1NC(=O)C3NC(=O)C4NC(=O)C(Cc5ccc(c(Cl)c5)Oc5cc3cc(c5O)Oc3ccc(cc3Cl)C(O)C(NC1=O)C(=O)NC2C(=O)NCCCN(C)C)NC(=O)C(NC(=O)C(N)CCCCN)c1ccc(O)c(c1)Oc1cc(O)cc4c1 (stereo not drawn) [Compound 121] | 2.3 | 3.1 | 40 | ≧5-20 μM | – | – | – |
| CCCCc1ccc(CNC(=O)C2NC(=O)C3NC(=O)C(NC(=O)C4NC(=O)C(CC(N)=O)NC(=O)C(NC(=O)C(CC(C)C)NC)C(O)c5ccc(c(Cl)c5)Oc5cc4cc(c5OC4OC(CO)C(O)C(O)C4OC4CC(C)(N)C(O)C(C)O4)Oc4ccc(cc4)C3OC3CC(C)(N)C(O)C(C)O3)c3ccc(O)c(c3)-c3c(O)cc(O)cc32)cc1 (stereo not drawn) [Compound 76] | 2.7 | > 2 | 98 | ≧5-20 μM | – | – | – |
| CCCCc1ccc(CNCC(=O)N2CCN(Cc3c(O)cc4c(c3O)-c3cc(ccc3O)C3NC(=O)C5NC(=O)C6NC(=O)C(Cc7ccc(c(Cl)c7)Oc7cc5cc(c7O)Oc5ccc(cc5Cl)C(O)C(NC3=O)C(=O)NC4C(=O)NC)NC(=O)C(N)c3ccc(O)c(c3)Oc3cc(O)cc6c3)CC2)cc1 (stereo not drawn) [Compound 143] | 2.8 | 2.6 | > 50 | ≧20-50 μM | – | – | – |
| O=C1NC2C(=O)NC3C(=O)NC4C(=O)NC(C(=O)NC(C(=O)O)c5cc(O)cc(O)c5-c5cc4ccc5O)C(O)c4ccc(c(Cl)c4)Oc4cc3cc(c4O)Oc3ccc(cc3Cl)CC1NC(=O)C(NC(=O)C13CC4CC(CC(C4)C1)C3)c1ccc(O)c(c1)Oc1cc(O)cc2c1 (stereo not drawn) [Compound 164] | – | – | – | – | 10 | 4 | – |
| CCCCc1ccc(CNCC(=O)N2CCN(Cc3c(O)cc4c(c3O)-c3cc(ccc3O)C3NC(=O)C5NC(=O)C6NC(=O)C(Cc7ccc(c(Cl)c7)Oc7cc5cc(c7O)Oc5ccc(cc5Cl)C(O)C(NC3=O)C(=O)NC4C(=O)O)NC(=O)C(N)c3ccc(O)c(c3)Oc3cc(O)cc6c3)CC2)cc1 (stereo not drawn) [Compound 142] | 20 | – | > 50 | 50 µM | – | – | – |
| CCCCc1ccc(CNC2C(Oc3c4cc5cc3Oc3ccc(cc3Cl)C(O)C3NC(=O)C(NC(=O)C5NC(=O)C5NC(=O)C(Cc6ccc(cc6)O4)NC(=O)C(NC)c4ccc(O)c(c4)Oc4cc(O)c(Cl)c5c4)c4ccc(O)c(c4)-c4c(cc(O)c(CN5CCN(Cc6ccc(-c7ccccc7)cc6)CC5)c4O)C(C(=O)O)NC3=O)OC(C(=O)O)C(O)C2O)cc1 (stereo not drawn) [Compound 93] | – | – | – | – | 3.5 | 22 | 81 |
| CCCCc1ccc(CNC2C(=O)NC3Cc4ccc(c(Cl)c4)Oc4cc5cc(c4O)Oc4ccc(cc4Cl)C(O)C4NC(=O)C(NC(=O)C5NC(=O)C(NC3=O)c3cc(O)cc(c3)Oc3cc2ccc3O)c2ccc(O)c(c2)-c2c(cc(O)c(CN3CCN(Cc5ccc(-c6ccccc6)cc5)CC3)c2O)C(C(=O)N2CCN(Cc3ccc(-c5ccccc5)cc3)CC2)NC4=O)cc1 (stereo not drawn) [Compound 123] | 2.8 | – | > 50 | ≧5-200 μM | – | – | – |
| CCCCCCCCCC(=O)N1CCN(Cc2c(O)cc3c(c2O)-c2cc(ccc2O)C2NC(=O)C4NC(=O)C5NC(=O)C(Cc6ccc(c(Cl)c6)Oc6cc4cc(c6O)Oc4ccc(cc4Cl)C(O)C(NC2=O)C(=O)NC3C(=O)O)NC(=O)C(N)c2ccc(O)c(c2)Oc2cc(O)cc5c2)CC1 (stereo not drawn) [Compound 141] | 7.1 | – | > 50 | 50 µM | – | – | – |
| CCCCN(CCCC)c1ccc(CNC(=O)C2NC(=O)C3NC(=O)C(NC(=O)C4NC(=O)C5NC(=O)C(Cc6ccc(c(Cl)c6)Oc6cc4cc(c6O)Oc4ccc(cc4Cl)C3O)NC(=O)C(N)c3ccc(O)c(c3)Oc3cc(O)cc5c3)c3ccc(O)c(c3)-c3c(O)cc(O)cc32)cc1 (stereo not drawn) [Compound 137] | 0.22 | 0.43 | 98 | >5 to 20 µM | – | – | – |
| CCCCc1ccc(CNCc2c(O)cc3c(c2O)-c2cc(ccc2O)C2NC(=O)C4NC(=O)C5NC(=O)C(Cc6ccc(c(Cl)c6)Oc6cc4cc(c6O)Oc4ccc(cc4Cl)C(O)C(NC2=O)C(=O)NC3C(=O)O)NC(=O)C(N)c2ccc(O)c(c2)Oc2cc(O)cc5c2)cc1 (stereo not drawn) [Compound 136] | 3.1 | 4.1 | > 50 | 20 to 50 µM | – | – | – |
| NC1C(=O)NC2Cc3ccc(c(Cl)c3)Oc3cc4cc(c3O)Oc3ccc(cc3Cl)C(O)C3NC(=O)C(NC(=O)C4NC(=O)C(NC2=O)c2cc(O)cc(c2)Oc2cc1ccc2O)c1ccc(O)c(c1)-c1c(O)cc(O)cc1C(C(=O)N1CCN(N=Cc2ccc(Cl)cc2)CC1)NC3=O (stereo not drawn) [Compound 113] | 0.68 | 0.42 | > 50 | ≧5-20 μM | – | – | – |
| CCCCCCCCCC[N+](C)(C)CCCNCc1c(O)cc2c(c1O)-c1cc(ccc1O)C1NC(=O)C3NC(=O)C4NC(=O)C(Cc5ccc(cc5)Oc5cc3cc(c5OC3OC(C(=O)O)C(O)C(O)C3N)Oc3ccc(cc3Cl)C(O)C(NC1=O)C(=O)NC2C(=O)O)NC(=O)C(NC)c1ccc(O)c(c1)Oc1cc(O)c(Cl)c4c1 (stereo not drawn) [Compound 95] | – | – | – | – | 3.5 | ≥ 20 | 92 |
| CNCc1c(O)cc2c(c1O)-c1cc(ccc1O)C1NC(=O)C3NC(=O)C4NC(=O)C(Cc5ccc(c(Cl)c5)Oc5cc3cc(c5O)Oc3ccc(cc3Cl)C(O)C(NC1=O)C(=O)NC2C(=O)O)NC(=O)C(NC(=O)OC(C)(C)C)c1ccc(O)c(c1)Oc1cc(O)cc4c1 (stereo not drawn) [Compound 140] | 13 | – | > 50 | ≧50-200 μM | – | – | – |
| NC1C(=O)NC2Cc3ccc(c(Cl)c3)Oc3cc4cc(c3OCc3ccc(-c5ccccc5)cc3)Oc3ccc(cc3Cl)C(O)C3NC(=O)C(NC(=O)C4NC(=O)C(NC2=O)c2cc(O)cc(c2)Oc2cc1ccc2O)c1ccc(O)c(c1)-c1c(O)cc(O)cc1C(C(=O)O)NC3=O (stereo not drawn) [Compound 128] | 1.8 | 0.8 | 48 | 20 µM | – | – | – |
| CCCCCCCNC(=O)C1NC(=O)C2NC(=O)C(NC(=O)C3NC(=O)C(CC(N)=O)NC(=O)C(NC(=O)C(CC(C)C)NC)C(O)c4ccc(c(Cl)c4)Oc4cc3cc(c4OC3OC(CO)C(O)C(O)C3OC3CC(C)(N)C(O)C(C)O3)Oc3ccc(cc3)C2OC2CC(C)(N)C(O)C(C)O2)c2ccc(O)c(c2)-c2c(O)cc(O)cc21 (stereo not drawn) [Compound 77] | 7 | 5 | 129 | ≧20-50 μM | – | – | – |
| NC1C(=O)NC2Cc3ccc(c(Cl)c3)Oc3cc4cc(c3O)Oc3ccc(cc3Cl)C(O)C3NC(=O)C(NC(=O)C4NC(=O)C(NC2=O)c2cc(O)cc(c2)Oc2cc1ccc2O)c1ccc(O)c(c1)-c1c(cc(O)c(CN2CCN(Cc4ccc(Cl)cc4)CC2)c1O)C(C(=O)O)NC3=O (stereo not drawn) [Compound 119] | 5 | – | > 50 | 20 to 400 µM | – | – | – |
| CNC(=O)C1NC(=O)C2NC(=O)C(NC(=O)C3NC(=O)C4NC(=O)C(Cc5ccc(c(Cl)c5)Oc5cc3cc(c5O)Oc3ccc(cc3Cl)C2O)NC(=O)C(N)c2ccc(O)c(c2)Oc2cc(O)cc4c2)c2ccc(O)c(c2)-c2c(O)cc(O)cc21 (stereo not drawn) [Compound 120] | 9 | 10 | > 200 | ≧20-200 μM | – | – | – |
| CN(Cc1ccc(-c2ccccc2)cc1)Cc1c(O)cc2c(c1O)-c1cc(ccc1O)C1NC(=O)C3NC(=O)C4NC(=O)C(Cc5ccc(c(Cl)c5)Oc5cc3cc(c5O)Oc3ccc(cc3Cl)C(O)C(NC1=O)C(=O)NC2C(=O)O)NC(=O)C(N)c1ccc(O)c(c1)Oc1cc(O)cc4c1 (stereo not drawn) [Compound 117] | 2.9 | 2.7 | > 50 | ≧5-80 μM | – | – | – |

From US20050250677A1, “Glycopeptide antibiotic derivatives” (priority 2002, published 2005)
